pIC50: −log10 of the molar value.
How the values were obtained:
E. coli GroEL/ES [1] = biological target: T1, E. coli GroEL/ES (Escherichia coli, UniProt P0A6F5); experiment: GroEL/ES-mediated dMDH refolding assay; type: biochemical
T1 construct: made in house; host or cells: GroEL in NEB 5-alpha E. coli; GroES in E. coli BL21 (DE3)
Protocol: Evaluating compounds for inhibition in the GroEL/ES-mediated dMDH refolding assay. All compounds were evaluated for inhibiting E. coli GroEL/ES-mediated refolding of the denatured MDH reporter enzyme. Reagent preparation: For these assays, four primary reagent stocks were prepared: 1) GroEL/ES-dMDH binary complex stock; 2) ATP initiation stock; 3) EDTA quench stock; 4) MDH enzymatic assay stock. Denatured MDH (dMDH) was prepared by 2-fold dilution of MDH (5 mg/ml, soluble pig heart MDH from Roche, product #10127248001) with denaturant buffer (7 M guanidine-HCl, 200 mM Tris, pH 7.4, and 50 mM DTT). MDH was completely denatured by incubating at room temperature for >45 min. The binary complex solutions were prepared by slowly adding the dMDH stock to a stirring stock with GroEL and GroES in folding buffer (50 mM Tris-HCl, pH 7.4, 50 mM KCl, 10 mM MgC2, and 1 mM DTT). […] For the ATP initiation stock, ATP solid was diluted into folding buffer to a final concentration of 2.5 mM. Quench solution contained 600 mM EDTA (pH 8.0). The MDH enzymatic assay stock consisted of 20 mM sodium mesoxalate and 1.6 mM NADH in reaction buffer (50 mM Tris-HCl, pH 7.4, 50 mM KCl, and 1 mM DTT).
Assay Protocol: First, 30 μL aliquots of the GroEL/ES-dMDH binary complex stocks were dispensed into clear, 384-well polystyrene plates. […] The chaperonin-mediated refolding cycles were initiated by addition of 20 μL of ATP stock (reagent concentrations during refolding cycle: 50 nM GroEL, 60 nM GroES, 12 nM dMDH, 1 mM ATP, and compounds of 100 μM to 46 nM, 3-fold dilution series) and the refolding reactions were incubated at 37° C. […] Next, the assay was quenched by addition of 10 μL of the EDTA stock to give a final concentration of 100 mM in the wells. […] A340 nm measurements were recorded at 0.5 minutes (start point) and at successive time points until the amount of NADH consumed reached ˜90% (end point, generally between 20-35 minutes).
Evaluating analogs for inhibiting GroEL/ES-mediated substrate refolding functions. […] We first evaluated all test compounds in our standard GroEL/ES-mediated refolding assays that employ either malate dehydrogenase (MDH) or rhodanese (Rho) as the denatured substrate reporter enzymes. When denatured, these enzymes are efficiently folded by GroEL/ES in the absence of inhibitors, and thus act as reporters to determine the degree of inhibition against the bacterial chaperonin system. Inhibition was examined in the presence of these two orthogonal substrates in order to support that GroEL/ES inhibitors were on-target. To further support on-target effects against GroEL/ES, we counter-screened for inhibition of the native MDH and Rho enzymatic reporter reactions, where test compounds were added after the denatured MDH and Rho substrate enzymes were completely refolded by GroEL/ES.

E. coli GroEL/ES [2] = biological target: T1, E. coli GroEL/ES; experiment: GroEL/ES-mediated dMDH refolding assay in the presence of E. coli NfsB nitroreductase; type: biochemical
Protocol: Evaluating compounds for inhibition in the GroEL/ES-mediated dMDH refolding assay and native MDH activity counter-screen in the presence of E. coli NfsB nitroreductase. These assays were performed nearly identically to those mentioned above, but with a couple distinct modifications. For both assays, 10 μg/mL of the E. coli NfsB nitroreductase enzyme (Sigma product #N9284) was added to the initial GroEL/ES-dMDH solution. For the GroEL/ES-dMDH refolding assay, after stamping with compounds, 10 μL of a 2.4 mM NADH solution was added, followed by a 10 minute incubation period at 37° C. to bioactivate the nitrofuran analogs. The remainder of the assay was conducted as in our standard protocol where no NfsB nitroreductase was present. […] For the native MDH activity counter-screen in the presence of E. coli NfsB nitroreductase, the assay was performed as described above for the GroEL/ES-dMDH refolding assay with NfsB; however, compound addition to the assay plates was conducted after the EDTA quench step, followed by a 10 minute incubation period at 37° C. to bioactivate the nitrofuran analogs. […] Results presented represent the averages of IC50 values obtained from at least four replicates in each assay.
Evaluating analogs for inhibiting GroEL/ES-mediated substrate refolding functions in the presence of the E. coli NfsB type-1 nitroreductase. […] However, our standard GroEL/ES-mediated refolding assays and native substrate reporter counter-screens were conducted without nitroreductases present.

[3] = without NfsB nitroreductase, read-out: GroEL/ES-dMDH Refolding IC50
[4] = with E. coli NfsB nitroreductase, read-out: NfsB-GroEL/ES-dMDH Refolding IC50

T1 sequence (P0A6F5 2-548): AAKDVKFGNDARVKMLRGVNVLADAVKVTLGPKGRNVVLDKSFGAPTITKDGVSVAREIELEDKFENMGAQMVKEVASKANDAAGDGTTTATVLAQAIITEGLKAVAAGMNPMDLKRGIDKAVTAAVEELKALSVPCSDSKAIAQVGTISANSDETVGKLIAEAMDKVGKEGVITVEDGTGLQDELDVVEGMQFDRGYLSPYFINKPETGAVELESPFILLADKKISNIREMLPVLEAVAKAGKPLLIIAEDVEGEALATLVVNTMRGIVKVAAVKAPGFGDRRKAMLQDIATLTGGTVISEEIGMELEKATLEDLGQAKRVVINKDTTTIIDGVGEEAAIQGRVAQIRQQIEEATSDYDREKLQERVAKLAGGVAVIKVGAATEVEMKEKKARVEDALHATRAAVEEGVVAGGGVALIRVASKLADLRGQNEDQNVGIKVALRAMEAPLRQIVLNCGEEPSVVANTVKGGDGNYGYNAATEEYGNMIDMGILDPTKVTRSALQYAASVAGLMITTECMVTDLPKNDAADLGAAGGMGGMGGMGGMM

Compound | pIC50 (E. coli GroEL/ES [1]) | pIC50 (E. coli GroEL/ES [2]) | pIC50 (E. coli GroEL/ES [1]; [3]) | pIC50 (E. coli GroEL/ES [2]; [4]) | GroEL/ES inhibition in words (E. coli GroEL/ES [2]; in the presence of E. coli NfsB)
O=C(N/N=C/c1ccc(O)c2ncccc12)c1ccccc1 [Compound 5, N′-((8-hydroxyquinolin-5-yl)methylene)benzohydrazide] | < 4.00 | < 4.08 |  |  | 
O=Cc1ccc(O)c2ncccc12 [Compound 40, reference compound] |  | < 4.08 | < 4.00 |  | 
O=C(N/N=C/c1ccc([N+](=O)[O-])o1)c1cccs1 [Compound 16, N′-((5-nitrofuran-2-yl)methylene)thiophene-2-carbohydrazide] |  |  |  | 5.11 | 
O=C(N/N=C/c1ccc(O)cc1)c1ccccc1 [Compound 36, N′-(4-hydroxybenzylidene)benzohydrazide] | < 4.00 | < 4.08 |  |  | 
O=C(N/N=C/c1ccc(O)c2ncccc12)c1ccncc1 [Compound 6, N′-((8-hydroxyquinolin-5-yl)methylene)isonicotinohydrazide] | < 4.00 | < 4.08 |  |  | 
COc1ccc(C(=O)N/N=C/c2ccc(O)cc2)cc1 [Compound 35, N′-(4-hydroxybenzylidene)-4-methoxybenzohydrazide] | < 4.00 | < 4.08 |  |  | 
O=C(N/N=C/c1cccc2ncccc12)c1ccccc1 [Compound 32, N′-(quinolin-5-ylmethylene)benzohydrazide] | < 4.00 | < 4.08 |  |  | 
O=Cc1ccc([N+](=O)[O-])o1 [Compound 41, reference compound] | 4.11 | < 4.08 |  |  | 
O=C(N/N=C/c1ccccc1)c1ccccc1 [Compound 38, N′-benzylidenebenzohydrazide] | < 4.00 | < 4.08 |  |  | 
COc1ccc(C(=O)N/N=C/c2ccco2)cc1 [Compound 39, N′-(furan-2-ylmethylene)-4-methoxybenzohydrazide] | < 4.00 | < 4.08 |  |  | 
CCN(CC)S(=O)(=O)c1cccc(C(=O)N/N=C/c2ccc([N+](=O)[O-])o2)c1 [Compound 25, N,N-diethyl-3-(2-((5-nitrofuran-2-yl)methylene)hydrazine-1-carbonyl)benzenesulfonamide] | 4.05 | 5.22 |  |  | 
O=C(N/N=C/c1ccc(O)c2ncccc12)c1ccccc1Oc1ccccc1 [Compound 10, N′-((8-hydroxyquinolin-5-yl)methylene)-2-phenoxybenzohydrazide] | 4.82 | 4.82 |  |  | 
CCOc1ccc(S(=O)(=O)Nc2ccc(C(=O)N/N=C/c3ccc(O)c4ncccc34)cc2)cc1 [Compound 15, 4-ethoxy-N-(4-(2-((8-hydroxyquinolin-5-yl)methylene)hydrazine-1-carbonyl)phenyl)benzenesulfonamide] | 5.22 | 5.51 |  |  | 
COc1ccc(C(=O)N/N=C/c2cccc3ccccc23)cc1 [Compound 33, 4-methoxy-N′-(naphthalen-1-ylmethylene)benzohydrazide] | < 4.00 | < 4.08 |  |  | 
O=C(N/N=C/c1ccc(O)c2ncccc12)c1cccc2ccccc12 [Compound 9, N′-((8-hydroxyquinolin-5-yl)methylene)-1-naphthohydrazide] | 4.89 | 5.11 |  |  | 
O=C(N/N=C/c1ccc(O)c2ncccc12)c1cccs1 [Compound 3, N′-((8-hydroxyquinolin-5-yl)methylene)thiophene-2-carbohydrazide] | 4.19 | 4.54 |  |  | 

Compound | pIC50 (E. coli GroEL/ES [1]) | pIC50 (E. coli GroEL/ES [2]) | pIC50 (E. coli GroEL/ES [1]; [3]) | pIC50 (E. coli GroEL/ES [2]; [4]) | GroEL/ES inhibition in words (E. coli GroEL/ES [2]; in the presence of E. coli NfsB)
O=C(N/N=C/c1ccc(O)c2ncccc12)c1ccc(NS(=O)(=O)c2cccs2)cc1 [Compound 13, N-(4-(2-((8-hydroxyquinolin-5-yl)methylene)hydrazine-1-carbonyl)phenyl)thiophene-2-sulfonamide] | 5.49 | 5.72 |  |  | 
CCOc1ccc(S(=O)(=O)Nc2ccc(C(=O)N/N=C/c3ccc([N+](=O)[O-])o3)cc2)cc1 [Compound 28, 4-ethoxy-N-(4-(2-((5-nitrofuran-2-yl)methylene)hydrazine-1-carbonyl)phenyl)benzenesulfonamide] | 4.44 | 4.41 |  |  | 
O=C(N/N=C/c1ccc([N+](=O)[O-])o1)c1cccc2ccccc12 [Compound 22, N′-((5-nitrofuran-2-yl)methylene)-1-naphthohydrazide] | 4.09 | 5.28 |  |  | 
COc1ccc(C(=O)N/N=C/c2ccccc2)cc1 [Compound 37, N′-benzylidene-4-methoxybenzohydrazide] | < 4.00 | < 4.08 |  |  | 
COc1ccc(C(=O)NN)cc1 [Compound 42, reference compound] | < 4.00 | < 4.08 |  |  | 
O=C(N/N=C/c1ccc([N+](=O)[O-])o1)c1ccc(NS(=O)(=O)c2cccs2)cc1 [Compound 26, N-(4-(2-((5-nitrofuran-2-yl)methylene)hydrazine-1-carbonyl)phenyl)thiophene-2-sulfonamide] | < 4.00 | 5.22 |  |  | 
COc1ccc(C(=O)N/N=C/c2ccc([N+](=O)[O-])o2)cc1 [Compound 20, 4-methoxy-N′-((5-nitrofuran-2-yl)methylene)benzohydrazide] |  |  | 4.16 | 5.00 | 
O=C(N/N=C/c1ccc([N+](=O)[O-])o1)c1ccccc1 [Compound 18, N′-((5-nitrofuran-2-yl)methylene)benzohydrazide] |  |  |  | 4.92 | 
O=C1CN(/N=C/c2ccc(O)c3ncccc23)C(=O)N1 [Compound 2, 1-(((8-hydroxyquinolin-5-yl)methylene)amino)imidazolidine-2,4-dione] | < 4.00 | < 4.08 |  |  | 
O=C(N/N=C/c1ccc(O)c2ccccc12)c1ccccc1 [Compound 30, N′-((4-hydroxynaphthalen-1-yl)methylene)benzohydrazide] | < 4.00 | < 4.08 |  |  | 
COc1ccc(C(=O)N/N=C/c2ccc(O)c3ccccc23)cc1 [Compound 29, N′-((4-hydroxynaphthalen-1-yl)methylene)-4-methoxybenzohydrazide] | < 4.00 | < 4.08 |  |  | 
O=C(N/N=C/c1cccc2ccccc12)c1ccccc1 [Compound 34, N′-(naphthalen-1-ylmethylene)benzohydrazide] | < 4.00 | < 4.08 |  |  | 
CCN(CC)S(=O)(=O)c1cccc(C(=O)N/N=C/c2ccc(O)c3ncccc23)c1 [Compound 12, N,N-diethyl-3-(2-((8-hydroxyquinolin-5-yl)methylene)hydrazine-1-carbonyl)benzenesulfonamide] | 4.72 | 4.68 |  |  | 
O=C(N/N=C/c1ccc(O)c2ncccc12)c1cccc(Oc2ccccc2)c1 [Compound 11, N′-((8-hydroxyquinolin-5-yl)methylene)-3-phenoxybenzohydrazide] | 4.89 | 4.68 |  |  | 
O=C1CN(/N=C/c2ccc([N+](=O)[O-])o2)C(=O)N1 [Nitrofurantoin, reference compound] |  |  |  | 4.08 | weak to moderate GroEL/ES inhibitors
O=C(N/N=C/c1ccc([N+](=O)[O-])o1)c1ccncc1 [Compound 19, N′-((5-nitrofuran-2-yl)methylene)isonicotinohydrazide] |  |  |  | 4.64 | 

From patent US20220009914A1, “Analogs of Nitrofuran Antibiotics to Combat Resistance” (The Trustees of Indiana University, priority 2020, published 2022)
